In publication PMC12455637, “Functionalizing Nisin with a Sugar Moiety Improves Its Solubility and Results in an Altered Antibacterial Spectrum and Mode of Action” (ACS Synthetic Biology, 2025):
≈ marks a conversion by molar mass, not a printed value. Ends that are not written are not given here.

Tests used:
B. cereus = experiment: Agar well diffusion assay; format: cell-based, Bacillus cereus; conditions: HPLC-purified peptides
Description: (§1) An overnight culture was added at a concentration of 0.1% (v/v) to molten GM17 agar (for E. faecium and E. faecalis) or LB agar (for S. aureus and B. cereus) at 45 °C, and then 30 mL of this mixture was poured onto a plate. After the agar solidified, wells of 8 mm were created by punching in the agar and filled with 30 μL of a 1 mg/mL lantibiotic solution. If needed, lantibiotics were activated by adding 3 μL of 1 mg/mL NisP directly to the well. The quantity of nisin was determined using HPLC as previously outlined. The agar plate was then incubated at 37 °C overnight, and the zones of inhibition were measured. The presented data results from three independent experiments. Zone diameters were measured in millimeters and recorded as the area of the zone (πr ^2) minus the area of the well (πr ^2) in millimeters.

Solubility at neutral pH = format: physicochemical
Description: Highest solubility at pH 7 was obtained for nisin Z mutant M31K (7–8 mg/mL). The covalent modification of a therapeutic peptide or protein with sugar units is an established strategy to enhance drug solubility and bioavailability. The N-terminal segment of nisin contains a relatively high proportion of hydrophobic residues, while the C-terminal portion is more hydrophilic, featuring positively charged lysine and histidine side chains (Figure e). Attaching a hydrophilic sugar moiety to the C-terminal region of nisin therefore may not substantially alter its amphiphilic nature. To assess the solubility of nisin and its new variants at neutral pH, wild-type nisin or nisin(M21V)–Gal were added to a 50 mM PBS buffer solution (pH 7.2) at room temperature until precipitation occurred (Figure S7a). After equilibration, the concentration of dissolved nisin in the saturated solution was determined using high-performance liquid chromatography (HPLC).
Wild-type nisin (product code: 0305, Handary, Belgium) or nisin(M21V)–Gal was added to a 50 mM PBS buffer solution until precipitation occurred. Equilibrium was established by continuous shaking for 30 min, followed by centrifugation for 3 min at 15,000g. The concentration of the saturated nisin solution was determined using HPLC. […]

Enterococcus faecalis = experiment: Agar well diffusion assay; format: cell-based; conditions: HPLC-purified peptides
Description: as §1

S. aureus = experiment: Agar well diffusion assay; format: cell-based, Staphylococcus aureus; conditions: HPLC-purified peptides
Description: as §1

E. faecium [1] = format: cell-based, Enterococcus faecium; conditions: agar well diffusion, 30 μL of 1 mg/mL
Description: 2 Production of single-Met containing nisin and nisin variants labeled with Met, Hpg or Hpg–Glc and their antibacterial activity against E. faecium strain. (a) Quantification of fully modified nisin variants labeled with Met or Hpg using HPLC as per Schmitt et al. (b) Evaluation of the antimicrobial efficacy of nisin and its variants against E. faecium through agar well diffusion assay. Each trial was repeated 3 times. The relative activity was determined by measuring inhibition zone diameters in millimeters, calculated as the area of the zone (πr ^2) minus the area of the well (πr ^2) in millimeters.
as §1

E. faecium [2] = experiment: Potassium ion efflux assay (PBFI probe); format: cell-based, Enterococcus faecium; conditions: various peptide concentrations, up to 32 times MIC; 10 mM HEPES pH 7.2, 0.5% glucose, 10 μM PBFI
Description: To conduct the K^+ release assay, the K^+-specific fluorescent probe PBFI was utilized. E. faecium was cultured in GM17 medium until it reached an OD600 of 0.6, at which point the cells were harvested (5000g, 5 min) and washed twice with 10 mM HEPES (pH 7.2) containing 0.5% glucose. The cells were then suspended in the same buffer supplemented with 10 μM PBFI. Data analysis was carried out using a Varioskan LUX Multimode Microplate Reader (Thermo Fisher Scientific), with cell excitation at 346 nm and fluorescence emission measurement at 505 nm to establish a baseline signal before the introduction of varying concentrations of antibiotics. Nisin was utilized as the positive control in this study.

lipid II = experiment: Spot-on-lawn assay of peptide-lipid II complex formation; format: cell-based, Enterococcus faecium; conditions: lipid II 300 μM, 2 μL spotted at edge of inhibition zone, E. faecium lawn, overnight 37 °C
Description: To assess the interaction between the peptide and lipid II, an overnight culture of E. faecium was added to 0.8% GM17 (w/v) at 45 °C with a final concentration of 0.1% (v/v), and the mixture was then poured into 10 mL plates. The binding of the peptide to lipid II was further examined by spotting purified lipid II (300 μM, 2 μL) at the periphery of the antibiotic inhibition zone. In brief, antimicrobials were applied to the agar plate. Once the antimicrobial solution drops had dried, lipid II was spotted at the edge of the inhibition zone. After the drops had dried, the plates were incubated overnight at 37 °C.

[3] = tested on: Staphylococcus aureus LMG15975 (MRSA); format: cell-based; conditions: broth microdilution, inoculum ~5 × 10^5 CFU/mL, overnight 37 °C, HPLC-purified peptides
Description: (§2) The minimal inhibitory concentration (MIC) values were assessed through broth microdilution following standard guidelines. The inoculum was adjusted to around 5 × 10^5 CFU/mL. MIC was characterized as the lowest concentration of the antimicrobial substance at which no visible growth was observed following overnight incubation at 37 °C.

[4] = tested on: Enterococcus faecium LMG16003 (VRE); format: cell-based; conditions: broth microdilution, inoculum ~5 × 10^5 CFU/mL, overnight 37 °C, HPLC-purified peptides
Description: as §2

E. faecium [5] = experiment: Time-kill assay; format: cell-based, Enterococcus faecium
Description: The antimicrobial effectiveness of nisin, nisin(1–22), and nisin(M21V)–Gal was assessed using a method previously described by Guo et al. , In summary, an overnight culture of E. faecium was diluted 50 times in GM17 medium and cultured at 37 °C. The bacteria were grown until reaching an optical density at 600 nm (OD600) of 0.5, and then the cell concentration was adjusted to 5 × 10^5 colony-forming units per milliliter (CFU/mL). Following this, the bacteria were exposed to a 5-fold MIC of each peptide. An untreated cell suspension was used as a control. At specific time intervals, 50 μL samples were taken, and both undiluted and 10-fold serially diluted suspensions were plated on GM17 agar. The plates were then incubated overnight at 37 °C, and the resulting colonies were counted and expressed as CFU/mL. Each experiment was conducted in triplicate.

E. faecium cells = experiment: Membrane potential, DiSC3(5) probe; format: cell-based, Enterococcus faecium; conditions: different concentrations, 2 μM DiSC3(5), monitored 25 min, three replicates
Description: To assess the membrane potential, the membrane potential-sensitive fluorescent dye DiSC3(5) was employed. E. faecium was grown to an OD600 of 0.8, then centrifuged at 5000g for 5 min and washed twice in 10 mM HEPES with 10 mM glucose (pH 7.2). The cell density was adjusted to an OD600 of 0.2 and loaded with 2 μM DiSC3(5) dye, followed by a 20 min incubation in darkness to stabilize the probe fluorescence. Subsequently, the cell suspension was transferred to a 96-well microplate and incubated for 5 min with 100 mM KCl. Antibiotics were then introduced at a varied concentration, and the fluorescence was monitored for 25 min. The excitation and emission wavelengths on the fluorescence spectrometer were set to 622 and 670 nm, respectively. Three replicates were conducted, and a representative example is presented.

[6] = tested on: Staphylococcus epidermidis; conditions: ref citation number not printed (Twomey et al. by title); cited from earlier work
Text: Recently, we introduced the Met analog Aha at position 17 and used click chemistry to ...

Row | Compound | activity compared to wild-type nisin or Hpg-labeled nisin(M21V) (B. cereus) | solubility thermodynamic at 30 min (Solubility at neutral pH; aqueous buffer, thermodynamic from solid, thermodynamic, solid added until precipitation, 50 mM PBS pH 7.2, room temperature, shaking 30 min, centrifugation 3 min 15,000g, HPLC at 226 nm against nisin standard curve, repeated 3 times) [µg/mL] | solubility, times higher compared to wild-type nisin (Solubility at neutral pH; neutral pH, 50 mM PBS pH 7.2, room temperature) [times] | activity compared to wild-type nisin or Hpg-labeled nisin(M21V) (Enterococcus faecalis) | activity compared to wild-type nisin or Hpg-labeled nisin(M21V) (S. aureus) | antibacterial activity in words (E. faecium [1]) | potassium ion release (PBFI fluorescence) (E. faecium [2]) | effect of externally added purified lipid II on antimicrobial activity / lipid II binding (lipid II) | MIC [3] [µg/mL] | MIC [4] [µg/mL] | bacteriostatic or bactericidal nature (E. faecium [5]; 5-fold MIC against E. faecium) | reduction in bacterial population (E. faecium [5]; 5-fold MIC, after 3 h of incubation, start 5 × 10^5 CFU/mL, triplicate) | membrane depolarization (DiSC3(5) fluorescence) (E. faecium cells) | influence of M17 mutation on antimicrobial activity [6]
1 | C=C(NC(=O)[C@@H](NC(=O)[C@H](Cc1c[nH]cn1)NC(=O)[C@@H](NC(=O)[C@H](CO)NC(=O)[C@@H]1CS[C@@H](C)[C@H]2NC(=O)[C@H](C)NC(=O)[C@H](NC(=O)[C@H](CCCCN)NC(=O)[C@@H](NC(=O)[C@H](CC(N)=O)NC(=O)[C@@H]3CS[C@@H](C)[C@@H](NC(=O)[C@H](CCCCN)NC(=O)[C@@H]4CS[C@@H](C)[C@@H](NC(=O)[C@@H]5CSC[C@@H](NC(=O)/C(=C/C)NC(=O)[C@@H](N)[C@@H](C)CC)C(=O)N[C@@H]([C@@H](C)CC)C(=O)NC(=C)C(=O)N[C@@H](CC(C)C)C(=O)N5)C(=O)N5CCC[C@H]5C(=O)NCC(=O)N4)C(=O)NCC(=O)N[C@@H](C)C(=O)N[C@@H](CC(C)C)C(=O)N[C@@H](CCc4cn(C[C@H]5OC(O)[C@H](O)[C@@H](O)[C@H]5O)nn4)C(=O)NCC(=O)N3)C(C)C)[C@H](C)SC[C@H](NC2=O)C(=O)N[C@@H](Cc2c[nH]cn2)C(=O)N1)[C@@H](C)CC)C(C)C)C(=O)N[C@@H](CCCCN)C(=O)O (some centres unmarked) [nisin(M21V)–Gal] | reduced activity | 8600 (≈ 2450 µM) | 3.9 | significantly lower activity | reduced activity | retained high potency | did not demonstrate this effect | maintained its capacity to bind to lipid II | 15.19 (≈ 4.33 µM) | 3.8 (≈ 1.08 µM) | bactericidal activity | thousand-fold | lost the ability to induce membrane depolarization | 
2 | M17Q: literature nisin mutant with M17Q mutation (ITSISLCTPGCKTGALQGCNMKTATCHCSIHVSK; cysteine pairing not given here; also: lantibiotic nisin-A; UniProt P13068 24-57, looked up, variant M17Q) |  |  |  |  |  |  |  |  |  |  |  |  |  | enhanced effectiveness
